Results taken from ChEMBL document CHEMBL4483862, “Open-source discovery of chemical leads for next-generation chemoprotective antimalarials” (2018).

Test system: Plasmodium berghei
Test: Luciferase/luciferin-expressing antifolate-resistant parasites were used to infect a culture of HepG2 cells that were pre-incubated with compounds. Infected hepatocytes emit light due to the luciferase reaction. Assay results are presented as the percent inhibition of light emission compared to control. […]
Format: functional
Settings: sporozoite; for IC90: read-out: LUCIFERASE INFECTION ASSAY - IC90
[1] = read-out: LUCIFERASE INFECTION ASSAY - IC50

SMILES | IC50 [1] [µM] | IC90 [µM] | further results
CCC1CCCCN1C(=O)COC(=O)c1cc(C(C)(C)C)cc(C(C)(C)C)c1 (configuration not stated) | > 10 | > 10 | 
O=C(Nc1ccc(F)cc1)c1csc(C(O)c2cccc(Cl)c2)n1 (configuration not stated) | > 10 | > 10 | 
CSc1sc(-c2ccn(S(=O)(=O)c3ccc(Cl)c(Cl)c3)n2)c2c1C(=O)CC(C)(C)C2 | > 6.58 | > 6.58 | 
CCCCc1[nH]nc2ccnc(-c3cncc(OC)c3)c12 |  | > 10 | IC50 (HEPG2TOX_HILL_SLOPE 1.78, HEPG2TOX_R_SQUARED 0.895, read-out: LUCIFERASE INFECTION ASSAY - IC50): > 10 µM
CCCNC(=O)c1c(NC(=O)c2cccc(Cl)c2)nc2ccccn12 |  | 1.11 | IC50 (FFLUC_HILL_SLOPE 126, FFLUC_R_SQUARED 0.738, HEPG2TOX_HILL_SLOPE 0.804, HEPG2TOX_R_SQUARED 0.952, PBLUC_HILL_SLOPE 15.4, PBLUC_R_SQUARED 0.753, read-out: LUCIFERASE INFECTION ASSAY - IC50): 0.96 µM
NC(Cc1ccc(Cl)cc1)c1csc(NC(=O)Nc2ccccc2Cc2ccccc2)n1 (configuration not stated) |  | > 7.13 | IC50 (PBLUC_HILL_SLOPE 11.7, PBLUC_R_SQUARED 0.713, read-out: LUCIFERASE INFECTION ASSAY - IC50): 6.46 µM
COc1cc(-c2cnc3cnc(-c4ccccc4Cl)cn23)cc(OC)c1OC |  | > 8.34 | IC50 (HEPG2TOX_HILL_SLOPE 7.56, HEPG2TOX_R_SQUARED 0.703, PBLUC_HILL_SLOPE 2.2, PBLUC_R_SQUARED 0.686, read-out: LUCIFERASE INFECTION ASSAY - IC50): 6.11 µM
Cc1n[nH]c(C(=O)NCc2ccc(OC(C)C)cc2)c1Br |  | > 10 | IC50 (PBLUC_HILL_SLOPE 12.5, PBLUC_R_SQUARED 0.288, read-out: LUCIFERASE INFECTION ASSAY - IC50): 8.82 µM
C/C(=N\NC(=O)c1ccc(C(F)(F)F)cc1)c1ccccc1O |  | 3.38 | IC50 (HEPG2TOX_HILL_SLOPE 0.838, HEPG2TOX_R_SQUARED 0.996, PBLUC_HILL_SLOPE 3.61, PBLUC_R_SQUARED 0.312, read-out: LUCIFERASE INFECTION ASSAY - IC50): 1.84 µM
COc1ccc(OC)c2c1CN(c1cnn(-c3nc4ccccc4[nH]3)c(=O)c1Cl)CC2O (configuration not stated) | > 10 | > 10 | 
O=C(Nc1ccc(C(F)(F)F)cc1)Nc1sccc1Cl |  | 7.98 | IC50 (HEPG2TOX_HILL_SLOPE 9.59, HEPG2TOX_R_SQUARED 0.7, PBLUC_HILL_SLOPE 5.14, PBLUC_R_SQUARED 0.452, read-out: LUCIFERASE INFECTION ASSAY - IC50): 5.21 µM
COc1cccc(-c2cn3c(-c4ccc5c(ccn5C)c4)cnc3cn2)c1F |  | 0.145 | IC50 (HEPG2TOX_HILL_SLOPE 1.41, HEPG2TOX_R_SQUARED 0.854, PBLUC_HILL_SLOPE 2.39, PBLUC_R_SQUARED 0.955, read-out: LUCIFERASE INFECTION ASSAY - IC50): 0.0579 µM
NC(=O)c1c(NC(=O)COC(=O)C2=NN(c3ccccc3)C(=O)CC2)sc2c1CCC2 | > 10 | > 10 | 
Cc1ccc(C)c(Oc2ccc(NC(=O)Nc3ccc(SC(F)(F)F)cc3)cn2)c1 |  | 2.68 | IC50 (FFLUC_HILL_SLOPE 0.447, FFLUC_R_SQUARED 0.395, HEPG2TOX_HILL_SLOPE 4.72, HEPG2TOX_R_SQUARED 0.964, PBLUC_HILL_SLOPE 32.1, PBLUC_R_SQUARED 0.384, read-out: LUCIFERASE INFECTION ASSAY - IC50): 2.5 µM
O=[N+]([O-])c1ccc(NN=C2CCSC2)c(S(=O)(=O)Nc2ccc(Cl)cc2)c1 | > 10 | > 10 | 
C/C(=N\Nc1nc2ccccc2o1)c1ccc2ccccc2c1O |  | > 10 | IC50 (HEPG2TOX_HILL_SLOPE 7.42, HEPG2TOX_R_SQUARED 0.127, PBLUC_HILL_SLOPE 13.1, PBLUC_R_SQUARED 0.536, read-out: LUCIFERASE INFECTION ASSAY - IC50): 8.85 µM
CC(=O)NC(Cc1c[nH]c2ccccc12)C(=O)NNC(=O)c1ccccc1O (configuration not stated) | > 10 | > 10 | 
O=C(Nc1ccccc1)C1=C(N2CCOCC2)/C(=C/c2ccc(Br)cc2)CC1 | > 10 | > 10 | 
COc1ccccc1-c1cc(-c2cccc(C(F)(F)F)c2)cnc1N |  | > 9.58 | IC50 (HEPG2TOX_HILL_SLOPE 7.68, HEPG2TOX_R_SQUARED 0.737, read-out: LUCIFERASE INFECTION ASSAY - IC50): > 9.58 µM
O=S(=O)(Nc1cc(C(F)(F)F)cc(C(F)(F)F)c1)c1ccccc1Oc1ccc(Cl)cc1Cl |  | > 6.22 | IC50 (FFLUC_HILL_SLOPE 40.5, FFLUC_R_SQUARED 0.634, read-out: LUCIFERASE INFECTION ASSAY - IC50): > 6.22 µM
O=C(/C=C/c1ccc(F)cc1)Nc1cc([N+](=O)[O-])c(F)cc1F |  | > 10 | IC50 (HEPG2TOX_HILL_SLOPE 14.4, HEPG2TOX_R_SQUARED 0.364, PBLUC_HILL_SLOPE 4.24, PBLUC_R_SQUARED 0.457, read-out: LUCIFERASE INFECTION ASSAY - IC50): 8.62 µM

SMILES | IC50 [1] [µM] | IC90 [µM] | further results
Cc1ccc(Sc2ccc(NC(=S)NCC3CCCO3)cc2)c(C)c1 (configuration not stated) |  | > 10 | IC50 (PBLUC_HILL_SLOPE 9.48, PBLUC_R_SQUARED 0.239, read-out: LUCIFERASE INFECTION ASSAY - IC50): 8.41 µM
CC1=CC(C)(C)N2C(=O)C3(NCCc4c3[nH]c3ccccc43)c3cc(C)cc1c32 (configuration not stated) |  | 3.21 | IC50 (HEPG2TOX_HILL_SLOPE 3.19, HEPG2TOX_R_SQUARED 0.903, PBLUC_HILL_SLOPE 11.5, PBLUC_R_SQUARED 0.604, read-out: LUCIFERASE INFECTION ASSAY - IC50): 2.66 µM
CCCn1c(N)c(C(=O)CNc2ccccc2N2CCCCCC2)c(=O)n(C)c1=O |  | 5.69 | IC50 (PBLUC_HILL_SLOPE 99.9, PBLUC_R_SQUARED 0.404, read-out: LUCIFERASE INFECTION ASSAY - IC50): 5.56 µM
c1ccc(-c2cc3c(N4CCC(c5ncc[nH]5)CC4)ncnc3s2)cc1 |  | 3.94 | IC50 (PBLUC_HILL_SLOPE 15.6, PBLUC_R_SQUARED 0.358, read-out: LUCIFERASE INFECTION ASSAY - IC50): 3.43 µM
COc1nc2c(c(-c3ccc(SC)cc3)c1C#N)Cc1ccccc1-2 |  | > 9.58 | IC50 (HEPG2TOX_HILL_SLOPE 1.73, HEPG2TOX_R_SQUARED 0.894, PBLUC_HILL_SLOPE 2.49, PBLUC_R_SQUARED 0.21, read-out: LUCIFERASE INFECTION ASSAY - IC50): 5.33 µM
O=S(=O)(c1ccccc1NCc1ccnc(N2CCCC2)c1)C(F)(F)F |  | > 10 | IC50 (HEPG2TOX_HILL_SLOPE 1.99, HEPG2TOX_R_SQUARED 0.873, PBLUC_HILL_SLOPE 3.99, PBLUC_R_SQUARED 0.0495, read-out: LUCIFERASE INFECTION ASSAY - IC50): 6.48 µM
CC(c1ccccc1)n1c(SCCSc2cc(Cl)ccc2Cl)nc2ccccc2c1=O (configuration not stated) |  | > 10 | IC50 (PBLUC_HILL_SLOPE 4.25, PBLUC_R_SQUARED 0.473, read-out: LUCIFERASE INFECTION ASSAY - IC50): 6.21 µM
O=C(COC(=O)CNS(=O)(=O)/C=C/c1ccccc1)NC1CCCCC1 | > 10 | > 10 | 
CCCn1c(NC(=O)c2ccc(S(=O)(=O)N3CC(C)OC(C)C3)cc2)nc2ccccc21 (configuration not stated) |  | 5.08 | IC50 (HEPG2TOX_HILL_SLOPE 9.83, HEPG2TOX_R_SQUARED 0.869, PBLUC_HILL_SLOPE 10.1, PBLUC_R_SQUARED 0.696, read-out: LUCIFERASE INFECTION ASSAY - IC50): 4.09 µM
COc1ccccc1NC(=O)Nc1nc(C(N)CCc2ccccc2)cs1 (configuration not stated) |  | > 8.63 | IC50 (PBLUC_HILL_SLOPE 2.77, PBLUC_R_SQUARED 0.721, read-out: LUCIFERASE INFECTION ASSAY - IC50): 5.07 µM
CNc1snc(C)c1C(=O)OCc1coc(-c2cccs2)n1 |  | 0.0184 | IC50 (PBLUC_HILL_SLOPE 23.3, PBLUC_R_SQUARED 0.377, read-out: LUCIFERASE INFECTION ASSAY - IC50): 0.0168 µM
O=C(CSc1nc2sc3c(c2c(=O)n1-c1cccc(C(F)(F)F)c1)CCCC3)NC12CC3CC(CC(C3)C1)C2 |  | 7.89 | IC50 (PBLUC_HILL_SLOPE 5.84, PBLUC_R_SQUARED 0.777, read-out: LUCIFERASE INFECTION ASSAY - IC50): 5.41 µM
COc1ccc(CN2C(=O)N(CC(C)C)C3(CCN(Cc4ccc5c(c4)CCO5)CC3)C2=O)cc1 |  | > 6.91 | IC50 (HEPG2TOX_HILL_SLOPE 0.211, HEPG2TOX_R_SQUARED 0.0109, PBLUC_HILL_SLOPE 2.27, PBLUC_R_SQUARED 0.453, read-out: LUCIFERASE INFECTION ASSAY - IC50): 3.57 µM
O=C1N(CN2CCCCC2)c2ccc(Br)cc2C12OCCO2 | > 8.99 | > 8.99 | 
Cc1cc(C(=O)Cn2cnc3ccc([N+](=O)[O-])cc3c2=O)c(C)n1CC1COc2ccccc2O1 (configuration not stated) | > 10 | > 10 | 
COc1ccc(NS(=O)(=O)c2cc([N+](=O)[O-])ccc2N/N=C(\C)c2ccc(S(=O)(=O)NCc3ccco3)cc2)cc1 |  | 4.99 | IC50 (HEPG2TOX_HILL_SLOPE 4.01, HEPG2TOX_R_SQUARED 0.968, PBLUC_HILL_SLOPE 8.16, PBLUC_R_SQUARED 0.206, read-out: LUCIFERASE INFECTION ASSAY - IC50): 3.81 µM
COc1ccc(N2C(=O)c3ccccc3C(C=NNC(=O)c3ccc(C)cc3)C2=O)cc1OC (configuration not stated) |  | 5.03 | IC50 (HEPG2TOX_HILL_SLOPE 8.3, HEPG2TOX_R_SQUARED 0.704, PBLUC_HILL_SLOPE 7.2, PBLUC_R_SQUARED 0.273, read-out: LUCIFERASE INFECTION ASSAY - IC50): 3.7 µM
C=C(C)C/N=c1\scc(-c2ccccc2F)n1/N=C1\CCCCc2ccccc21 | > 10 | > 10 | 
CC(C)(C)c1ccccc1NC(=O)Nc1nc(C(N)CCc2ccccc2)cs1 (configuration not stated) |  | 8 | IC50 (PBLUC_HILL_SLOPE 12.3, PBLUC_R_SQUARED 0.125, read-out: LUCIFERASE INFECTION ASSAY - IC50): 6.69 µM
CC12CC3CC(C1)CC(c1ccc(O)cc1)(C3)C2 | > 10 | > 10 | 
